Experimental data reported in ChEMBL document CHEMBL1132245, “Novel and potent 6-chloro-3-pyridinyl ligands for the alpha4beta2 neuronal nicotinic acetylcholine receptor” (J Med Chem, 1999).

Experiments:
Type in all cases: protein-complex assay
[1] = target: T1, Neuronal acetylcholine receptor; alpha4/beta2 (Rattus norvegicus, UniProt P09483+P12390); experiment: Inhibition of [3H](-)-nicotine binding to recombinant rat alpha4-beta2 nAChR.
[2] = target: T1, Neuronal acetylcholine receptor; alpha4/beta2; experiment: Inhibition of [3H](-)-nicotine binding to recombinant rat alpha4-beta2 nAChR was determined; experiment 2
[3] = target: T1, Neuronal acetylcholine receptor; alpha4/beta2; experiment: Inhibition of [3H](-)-nicotine binding to recombinant rat alpha4-beta2 nAChR was determined; experiment 1

T1 sequence (P09483 whole entry): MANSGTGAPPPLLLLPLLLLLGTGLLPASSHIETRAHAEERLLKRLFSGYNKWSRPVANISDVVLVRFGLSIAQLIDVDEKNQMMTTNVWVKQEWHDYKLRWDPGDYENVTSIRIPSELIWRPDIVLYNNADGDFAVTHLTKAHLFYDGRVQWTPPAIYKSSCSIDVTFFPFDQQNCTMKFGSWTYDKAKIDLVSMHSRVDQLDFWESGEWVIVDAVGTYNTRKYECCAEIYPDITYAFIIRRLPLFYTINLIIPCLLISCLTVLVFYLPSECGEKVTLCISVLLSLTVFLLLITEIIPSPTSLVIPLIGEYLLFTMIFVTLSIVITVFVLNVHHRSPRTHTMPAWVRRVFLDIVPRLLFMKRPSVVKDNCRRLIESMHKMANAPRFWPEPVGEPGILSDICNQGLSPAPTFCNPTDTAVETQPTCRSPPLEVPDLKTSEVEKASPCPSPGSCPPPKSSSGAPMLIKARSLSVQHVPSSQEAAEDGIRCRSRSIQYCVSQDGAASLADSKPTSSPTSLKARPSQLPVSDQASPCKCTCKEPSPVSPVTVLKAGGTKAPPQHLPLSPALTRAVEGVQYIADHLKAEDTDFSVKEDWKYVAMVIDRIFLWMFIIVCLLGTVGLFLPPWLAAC
T1 sequence (P12390 whole entry): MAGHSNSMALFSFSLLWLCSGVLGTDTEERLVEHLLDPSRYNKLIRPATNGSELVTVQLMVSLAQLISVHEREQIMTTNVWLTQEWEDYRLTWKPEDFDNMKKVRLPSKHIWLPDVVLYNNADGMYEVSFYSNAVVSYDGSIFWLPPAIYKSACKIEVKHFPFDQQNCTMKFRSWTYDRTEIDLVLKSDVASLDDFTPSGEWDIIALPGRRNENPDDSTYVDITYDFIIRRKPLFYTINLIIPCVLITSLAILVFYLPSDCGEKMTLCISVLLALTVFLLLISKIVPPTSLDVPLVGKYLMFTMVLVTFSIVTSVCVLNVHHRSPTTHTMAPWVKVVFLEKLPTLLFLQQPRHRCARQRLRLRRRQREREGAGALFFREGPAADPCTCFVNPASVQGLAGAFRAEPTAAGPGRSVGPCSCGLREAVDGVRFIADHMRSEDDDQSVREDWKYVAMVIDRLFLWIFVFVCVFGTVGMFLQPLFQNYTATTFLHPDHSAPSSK

SMILES	IC50 [1]	IC50 [2]	IC50 [3]
O=C1NCCN1Cc1ccc(Cl)nc1	8.1 µM		
N=C1NCCN1Cc1ccc(Cl)nc1 [DESNITROIMIDACLOPRID]	0.006 µM		
NC1=NCCO1		95.3 µM	99.5 µM
CN1CCCC1c1cccnc1Cl (stereo not drawn)	3.2 µM		
SC1=NCCN1Cc1ccc(Cl)nc1		13.5 µM	12.6 µM
Clc1ccc(Cn2ccnc2)cn1	0.45 µM		
CN1CCCC1c1ccc(Cl)nc1 (stereo not drawn)	0.0019 µM		
NC1=NCCCS1	160 µM		
CCN(Cc1ccc(Cl)nc1)C(=N)NC	3.3 µM		
Clc1ccc(CN2CCN(Cc3ccc(Cl)nc3)CC2)cn1		1.65 µM	1.74 µM
